Data from ChEMBL document CHEMBL3585344, “Thiazole-based aminopyrimidines and N-phenylpyrazolines as potent antimicrobial agents: synthesis and biological evaluation” (2014).
≈ marks a conversion by molar mass, not a printed value.

How the values were obtained:
[1] = system: Escherichia coli; test: Antibacterial activity against Escherichia coli ATCC 35210 after 24 hrs by microdilution method; format: functional; conditions: ATCC 35210, 24 h
[2] = system: Escherichia coli; test: Bactericidal activity against Escherichia coli ATCC 35210 after 72 hrs by microdilution method; format: functional
[3] = system: Talaromyces funiculosus; test: Fungicidal activity against Penicillium funiculosum ATCC 36839 after 72 hrs by microdilution method; format: functional
[4] = system: Trichoderma viride; test: Fungicidal activity against Trichoderma viride IAM 5061 after 72 hrs by microdilution method; format: functional
[5] = system: Micrococcus flavus; test: Antibacterial activity against Micrococcus flavus ATCC 10240 after 24 hrs by microdilution method; format: functional; conditions: ATCC 10240, 24 h
[6] = system: Bacillus cereus; test: Bactericidal activity against Bacillus cereus clinical isolate after 72 hrs by microdilution method; format: functional
[7] = system: Micrococcus flavus; test: Bactericidal activity against Micrococcus flavus ATCC 10240 after 72 hrs by microdilution method; format: functional
[8] = system: Trichoderma viride; test: Antifungal activity against Trichoderma viride IAM 5061 after 72 hrs by microdilution method; format: functional; conditions: IAM 5061, 72 h
[9] = system: Bacillus cereus; test: Antibacterial activity against Bacillus cereus clinical isolate after 24 hrs by microdilution method; format: functional
[10] = system: Aspergillus ochraceus; test: Antifungal activity against Aspergillus ochraceus ATCC 12066 after 72 hrs by microdilution method; format: functional; conditions: ATCC 12066, 72 h
[11] = system: Pseudomonas aeruginosa; test: Bactericidal activity against Pseudomonas aeruginosa ATCC 27853 after 72 hrs by microdilution method; format: functional
[12] = system: Talaromyces funiculosus; test: Antifungal activity against Penicillium funiculosum ATCC 36839 after 72 hrs by microdilution method; format: functional; conditions: ATCC 36839, 72 h
[13] = system: Pseudomonas aeruginosa; test: Antibacterial activity against Pseudomonas aeruginosa ATCC 27853 after 24 hrs by microdilution method; format: functional; conditions: ATCC 27853, 24 h
[14] = system: Aspergillus niger; test: Antifungal activity against Aspergillus niger ATCC 6275 after 72 hrs by microdilution method; format: functional; conditions: ATCC 6275, 72 h
[15] = system: Aspergillus fumigatus; test: Fungicidal activity against Aspergillus fumigatus isolated from human after 72 hrs by microdilution method; format: functional
[16] = system: Aspergillus ochraceus; test: Fungicidal activity against Aspergillus ochraceus ATCC 12066 after 72 hrs by microdilution method; format: functional
[17] = system: Listeria monocytogenes; test: Bactericidal activity against Listeria monocytogenes NCTC 7973 after 72 hrs by microdilution method; format: functional
[18] = system: Candida albicans; test: Antifungal activity against Candida albicans ATCC 10231 isolated from human after 72 hrs by microdilution method; format: functional; conditions: ATCC 10231, 72 h
[19] = system: Salmonella typhimurium; test: Bactericidal activity against Salmonella typhimurium ATCC 13311 after 72 hrs by microdilution method; format: functional, Salmonella enterica subsp. enterica serovar Typhimurium
[20] = system: Salmonella typhimurium; test: Antibacterial activity against Salmonella typhimurium ATCC 13311 after 24 hrs by microdilution method; format: functional, Salmonella enterica subsp. enterica serovar Typhimurium; conditions: Salmonella enterica, ATCC 13311, 24 h
[21] = system: Penicillium ochrochloron; test: Antifungal activity against Penicillium ochrochloron ATCC 9112 after 72 hrs by microdilution method; format: functional; conditions: ATCC 9112, 72 h
[22] = system: Aspergillus flavus; test: Antifungal activity against Aspergillus flavus ATCC 9643 after 72 hrs by microdilution method; format: functional; conditions: ATCC 9643, 72 h
[23] = system: Aspergillus fumigatus; test: Antifungal activity against Aspergillus fumigatus isolated from human after 72 hrs by microdilution method; format: functional
[24] = system: Staphylococcus aureus; test: Antibacterial activity against Staphylococcus aureus ATCC 6538 after 24 hrs by microdilution method; format: functional; conditions: ATCC 6538, 24 h
[25] = system: Enterobacter cloacae; test: Bactericidal activity against Enterobacter cloacae ATCC 35030 isolated from human after 72 hrs by microdilution method; format: functional
[26] = system: Penicillium ochrochloron; test: Fungicidal activity against Penicillium ochrochloron ATCC 9112 after 72 hrs by microdilution method; format: functional
[27] = system: Aspergillus niger; test: Fungicidal activity against Aspergillus niger ATCC 6275 after 72 hrs by microdilution method; format: functional
[28] = system: Listeria monocytogenes; test: Antibacterial activity against Listeria monocytogenes NCTC 7973 after 24 hrs by microdilution method; format: functional; conditions: NCTC 7973, 24 h
[29] = system: Staphylococcus aureus; test: Bactericidal activity against Staphylococcus aureus ATCC 6538 after 72 hrs by microdilution method; format: functional
[30] = system: Enterobacter cloacae; test: Antibacterial activity against Enterobacter cloacae ATCC 35030 isolated from human after 24 hrs by microdilution method; format: functional; conditions: ATCC 35030, 24 h
[31] = system: Aspergillus flavus; test: Fungicidal activity against Aspergillus flavus ATCC 9643 after 72 hrs by microdilution method; format: functional
[32] = system: Candida albicans; test: Fungicidal activity against Candida albicans ATCC 10231 isolated from human after 72 hrs by microdilution method; format: functional
[33] = system: Aspergillus versicolor; test: Antifungal activity against Aspergillus versicolor ATCC 11730 after 72 hrs by microdilution method; format: functional; conditions: ATCC 11730, 72 h
[34] = system: Aspergillus versicolor; test: Fungicidal activity against Aspergillus versicolor ATCC 11730 after 72 hrs by microdilution method; format: functional

Structure (SMILES) | MIC [1] [µM] | MBC99.5 [2] [×10⁻² umol/ml] | MFC99.5 [3] [×10⁻² umol/ml] | MFC99.5 [4] [×10⁻² umol/ml] | MIC [5] [µM] | MBC99.5 [6] [×10⁻² umol/ml] | MBC99.5 [7] [×10⁻² umol/ml] | MIC [8] [µM] | MIC [9] [µM] | MIC [10] [µM] | MBC99.5 [11] [×10⁻² umol/ml] | MIC [12] [µM] | MIC [13] [µM] | MIC [14] [µM] | MFC99.5 [15] [×10⁻² umol/ml] | MFC99.5 [16] [×10⁻² umol/ml] | MBC99.5 [17] [×10⁻² umol/ml] | MIC [18] [µM] | MBC99.5 [19] [×10⁻² umol/ml] | MIC [20] [µM] | also measured
CNc1nc(C)c(-c2cc(-c3ccccc3)nc(N)n2)s1 | 33.7 (≈ 10 µg/mL) | 6.74 | 6.74 | 3.37 | 33.7 (≈ 10 µg/mL) | 6.74 | 8.41 | 25.2 (≈ 7.49 µg/mL) | 33.7 (≈ 10 µg/mL) | 33.7 (≈ 10 µg/mL) | 6.74 | 33.7 (≈ 10 µg/mL) | 33.7 (≈ 10 µg/mL) | 50.5 (≈ 15 µg/mL) | 6.74 | 6.74 | 11.81 | 33.7 (≈ 10 µg/mL) | 6.74 | 33.7 (≈ 10 µg/mL) | MIC [21]: 33.7 µM (≈ 10 µg/mL); MIC [22]: 50.5 µM (≈ 15 µg/mL); MIC [23]: 50.5 µM (≈ 15 µg/mL); MIC [24]: 84.1 µM (≈ 25 µg/mL); MBC99.5 [25]: 8.41 ×10⁻² umol/ml; MFC99.5 [26]: 5.05 ×10⁻² umol/ml; MFC99.5 [27]: 6.74 ×10⁻² umol/ml; MIC [28]: 101 µM (≈ 30 µg/mL); MBC99.5 [29]: 10.1 ×10⁻² umol/ml; MIC [30]: 67.4 µM (≈ 20 µg/mL); MFC99.5 [31]: 6.74 ×10⁻² umol/ml; MFC99.5 [32]: 6.74 ×10⁻² umol/ml
CNc1nc(C)c(C2=NN(c3ccccc3)C(c3ccccc3)C2)s1 (centres undefined) | 172 (≈ 59.9 µg/mL) | 20.1 | 40.2 | 40.2 | 115 (≈ 40.1 µg/mL) | 28.7 | 23 | 287 (≈ 100 µg/mL) | 230 (≈ 80.1 µg/mL) | 143 (≈ 49.8 µg/mL) | 45.9 | 287 (≈ 100 µg/mL) | 144 (≈ 50.2 µg/mL) | 143 (≈ 49.8 µg/mL) | 23 | 17.2 | 11.5 | 172 (≈ 59.9 µg/mL) | 28.7 | 172 (≈ 59.9 µg/mL) | MIC [33]: 143 µM (≈ 49.8 µg/mL); MFC99.5 [34]: 23 ×10⁻² umol/ml; MIC [21]: 143 µM (≈ 49.8 µg/mL); MIC [23]: 143 µM (≈ 49.8 µg/mL); MIC [24]: 115 µM (≈ 40.1 µg/mL); MBC99.5 [25]: 20.1 ×10⁻² umol/ml; MFC99.5 [26]: 28.7 ×10⁻² umol/ml; MFC99.5 [27]: 28.7 ×10⁻² umol/ml; MIC [28]: 57 µM (≈ 19.9 µg/mL); MBC99.5 [29]: 20.1 ×10⁻² umol/ml; MIC [30]: 144 µM (≈ 50.2 µg/mL); MFC99.5 [32]: 23 ×10⁻² umol/ml
